Assay results from paper PMC10466336, “Chemical Probe for Imaging of Polo-like Kinase 4 and Centrioles” (JACS Au, 2023).

Assays:
[1] = target: T1, GFP-Plk4(K41M) in transfected HeLa cells (Homo sapiens, UniProt O00444, K41M); assay: Live-cell confocal/STED imaging of overexpressed Plk4; type: cell-based; settings: 500 nM, live-cell STED, HeLa GFP-Plk4(K41M), N = 5
T1 construct: expressed in transfected cells; host or cells: HeLa
T1 sequence (O00444 1-970 K41M): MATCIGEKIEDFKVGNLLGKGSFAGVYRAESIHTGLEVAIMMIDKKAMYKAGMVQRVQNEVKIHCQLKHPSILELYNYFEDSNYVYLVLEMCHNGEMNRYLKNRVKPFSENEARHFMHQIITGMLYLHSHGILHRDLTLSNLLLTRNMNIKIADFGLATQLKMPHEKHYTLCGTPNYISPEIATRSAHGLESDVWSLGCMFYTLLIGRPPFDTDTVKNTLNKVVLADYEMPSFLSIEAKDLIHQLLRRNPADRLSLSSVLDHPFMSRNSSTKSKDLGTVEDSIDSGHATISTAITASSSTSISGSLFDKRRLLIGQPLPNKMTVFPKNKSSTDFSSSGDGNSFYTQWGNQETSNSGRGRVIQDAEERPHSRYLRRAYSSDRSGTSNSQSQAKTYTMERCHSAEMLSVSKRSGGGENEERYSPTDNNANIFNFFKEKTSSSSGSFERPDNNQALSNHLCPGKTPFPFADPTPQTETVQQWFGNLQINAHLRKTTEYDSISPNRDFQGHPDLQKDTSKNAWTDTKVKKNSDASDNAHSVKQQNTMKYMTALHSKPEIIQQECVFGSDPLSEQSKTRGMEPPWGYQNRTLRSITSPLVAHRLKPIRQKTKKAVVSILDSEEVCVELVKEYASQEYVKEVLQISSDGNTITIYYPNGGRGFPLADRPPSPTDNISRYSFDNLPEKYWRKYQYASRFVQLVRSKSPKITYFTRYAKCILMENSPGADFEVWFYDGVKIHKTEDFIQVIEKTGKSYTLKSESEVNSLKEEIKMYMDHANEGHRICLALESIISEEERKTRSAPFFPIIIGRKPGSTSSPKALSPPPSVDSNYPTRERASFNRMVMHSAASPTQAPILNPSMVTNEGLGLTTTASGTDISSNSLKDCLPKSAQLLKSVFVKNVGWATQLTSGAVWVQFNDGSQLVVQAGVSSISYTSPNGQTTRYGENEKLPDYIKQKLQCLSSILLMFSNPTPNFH

HeLa Centrin1-GFP cells = assay: Plk4 foci scoring at different time points of Cen-TCO incubation; type: cell-based, human; settings: 500 nM
Experimental: We conjugated trans-cyclooctene to the previously obtained compound (4) to obtain Cen-TCO (3) using the synthetic route outlined in Scheme S2. The resulting Cen-TCO (3) reacted with an appropriate tetrazine, such as SiR650-TetH (4a) (Figure S4A). The reaction was followed by LC-MS, and the data confirmed quantitative conversion of Cen-TCO (3) to the appropriate cycloaddition product Cen-Click-SiR650 (Figure S4A, D). […] To assess the phenotype caused by Cen-TCO (3), we incubated HeLa cells expressing Centrin1-GFP with different concentrations of Cen-TCO (3) for 24 h, followed by scoring of Centrin1-GFP foci numbers (Figure S5B). […] Next, we tested Cen-TCO (3) in combination with different tetrazine partners to determine the optimal combination for our bio-orthogonal strategy. We used four different tetrazines to visualize overexpressed GFP-Plk4(K41M) in HeLa cells following 1 h of incubation with Cen-TCO (500 nM) (Figure S6). […] Furthermore, the high fluorogenicity of HD653 makes it particularly well suited for live cell imaging.[33] Therefore, the combination of Cen-TCO (3) and HD653 (5) was further used for live cell imaging of endogenous Plk4 (Figure 4A). HeLa cells expressing Centrin1-GFP were incubated with 500 nM Cen-TCO (3) for 1 h, followed by a 15 min incubation with 500 nM HD653 (5) and imaged with a confocal microscope without prior washing. Despite the high unspecific background signal, a clear focus could be detected at centrioles (Figure 4B). […] The fwhm of the circular signal in this case was 368 ± 26 (N = 6) (Figure S7B), which corresponds to the size measured with overexpressed GFP-Plk4(K41M) (see Figure 3D), and approximately that of the torus region surrounding the centriole.[40] […] To assess this and test whether early time points after Cen-TCO addition may be immune to this problem, HeLa Centrin1-GFP cells were incubated with Cen-TCO (3) and fixed at different time points thereafter, after which the number of centriolar Plk4 foci per cell was quantified (Figure S8B–F). […]

SMILES	diameter of the circular SiR595 signal [1] [nm]	effect on Plk4 foci numbers (HeLa Centrin1-GFP cells; after 1 h of incubation)	effect on Plk4 foci numbers around centrioles (HeLa Centrin1-GFP cells; after 4 h)	effect on Plk4 foci numbers (HeLa Centrin1-GFP cells; up to 4 h of incubation)
COc1c(Nc2cc(C)[nH]n2)nc(Sc2ccc(S(=O)(=O)Cc3cccc([N+](=O)[O-])c3F)cc2F)nc1N1CCC(CC(=O)NCCNC(=O)c2ccc(C(=O)O)c(C3=C4C=CC(=N)C=C4[Si](C)(C)c4cc(N)ccc43)c2)CC1 [2d]	373 ± 36			
COc1c(Nc2cc(C)[nH]n2)nc(Sc2ccc(S(=O)(=O)Cc3cccc([N+](=O)[O-])c3F)cc2F)nc1N1CCC(CC(=O)NCCNC(=O)OC2CC/C=C/CCC2)CC1 (stereo not shown) [compound 3]		no perturbation	significant increase	only minor perturbations
